From ChEMBL document CHEMBL4879554, “Data for DCP probe GNE-2256” (2021)
Active and inactive are the calls of the source. The rule behind the calls is not given here.

Key:
[1] = target: Eukaryotic elongation factor 2 kinase (Homo sapiens) (UniProt O00418); assay: eEF_2K Kinase panel; conditions: Compound concentration 1.0 uM
[2] = target: Serine/threonine-protein kinase Sgk2 (Homo sapiens) (UniProt Q9HBY8); assay: SGK2 Kinase panel; conditions: Compound concentration 1.0 uM
[3] = target: Histamine H3 receptor (Homo sapiens) (UniProt Q9Y5N1); conditions: Compound concentration 10.0 uM
[4] = target: Serine/threonine-protein kinase TBK1 (Homo sapiens) (UniProt Q9UHD2); assay: TBK1 Kinase panel; conditions: Compound concentration 1.0 uM
[5] = target: Macrophage-stimulating protein receptor (Homo sapiens) (UniProt Q04912); assay: Ron Kinase panel; conditions: Compound concentration 1.0 uM
[6] = target: Death-associated protein kinase 1 (Homo sapiens) (UniProt P53355); assay: DAPK1 Kinase panel; conditions: Compound concentration 1.0 uM
[7] = target: Ephrin type-A receptor 8 (Homo sapiens) (UniProt P29322); assay: EphA8 Kinase panel; conditions: Compound concentration 1.0 uM
[8] = target: Serine/threonine-protein kinase 16 (Homo sapiens) (UniProt O75716); assay: STK16 Kinase panel; conditions: Compound concentration 1.0 uM
[9] = target: Serine/threonine-protein kinase 17A (Homo sapiens) (UniProt Q9UEE5); assay: DRAK1 Kinase panel; conditions: Compound concentration 1.0 uM
[10] = target: High affinity nerve growth factor receptor (Homo sapiens, UniProt P04629); assay: NanoBRET assay (NTRK1v2, SGC Frankfurt)
[11] = target: D(3) dopamine receptor (Homo sapiens) (UniProt P35462); conditions: Compound concentration 10.0 uM
[12] = target: Calcium/calmodulin-dependent protein kinase type IV (Homo sapiens) (UniProt Q16566); assay: CamKIV Kinase panel; conditions: Compound concentration 1.0 uM
[13] = target: Serine/threonine-protein kinase DCLK2 (Homo sapiens) (UniProt Q8N568); assay: DCAMKL2 Kinase panel; conditions: Compound concentration 1.0 uM
[14] = target: Serine/threonine-protein kinase Chk2 (Homo sapiens) (UniProt O96017); assay: CHK2 Kinase panel; conditions: Compound concentration 1.0 uM
[15] = target: Serine/threonine-protein kinase MRCK alpha (Homo sapiens) (UniProt Q5VT25); assay: MRCK_alpha Kinase panel; conditions: Compound concentration 1.0 uM
[16] = target: Ribosomal protein S6 kinase alpha-1 (Homo sapiens) (UniProt Q15418); assay: RSK1 Kinase panel; conditions: Compound concentration 1.0 uM
[17] = target: 5-hydroxytryptamine receptor 2B (Homo sapiens, UniProt P41595); conditions: Compound concentration 10.0 uM
[18] = target: Tyrosine-protein kinase CSK (Homo sapiens) (UniProt P41240); assay: CSK Kinase panel; conditions: Compound concentration 1.0 uM
[19] = target: cAMP-dependent protein kinase catalytic subunit PRKX (Homo sapiens) (UniProt P51817); assay: PrKX Kinase panel; conditions: Compound concentration 1.0 uM
[20] = target: Ribosomal protein S6 kinase beta-1 (Homo sapiens) (UniProt P23443); assay: p70S6K Kinase panel; conditions: Compound concentration 1.0 uM
[21] = target: Serine/threonine-protein kinase Sgk1 (Homo sapiens) (UniProt O00141); assay: SGK1 Kinase panel; conditions: Compound concentration 1.0 uM
[22] = target: BDNF/NT-3 growth factors receptor (Homo sapiens) (UniProt Q16620); assay: TrkB Kinase panel; conditions: Compound concentration 1.0 uM
[23] = target: Dual specificity protein kinase TTK (Homo sapiens) (UniProt P33981); assay: TTK Kinase panel; conditions: Compound concentration 1.0 uM
[24] = target: Dual specificity protein kinase CLK4 (Homo sapiens) (UniProt Q9HAZ1); assay: CLK4 Kinase panel; conditions: Compound concentration 1.0 uM
[25] = target: Protein kinase C alpha type (Homo sapiens) (UniProt P17252); assay: PKC_alpha Kinase panel; conditions: Compound concentration 1.0 uM
[26] = target: Serine/threonine-protein kinase Nek1 (Homo sapiens) (UniProt Q96PY6); assay: NEK1 Kinase panel; conditions: Compound concentration 1.0 uM
[27] = target: Ephrin type-B receptor 3 (Homo sapiens) (UniProt P54753); assay: EphB3 Kinase panel; conditions: Compound concentration 1.0 uM
[28] = target: Activin receptor type-1B (Homo sapiens) (UniProt P36896); assay: ACVR1B Kinase panel; conditions: Compound concentration 1.0 uM
[29] = target: Mitogen-activated protein kinase 10 (Homo sapiens) (UniProt P53779); assay: JNK3 Kinase panel; conditions: Compound concentration 1.0 uM
[30] = target: Ephrin type-A receptor 7 (Homo sapiens) (UniProt Q15375); assay: EphA7 Kinase panel; conditions: Compound concentration 1.0 uM
[31] = target: Calcium/calmodulin-dependent protein kinase type 1 (Homo sapiens) (UniProt Q14012); assay: CaMKI Kinase panel; conditions: Compound concentration 1.0 uM
[32] = target: Dual specificity tyrosine-phosphorylation-regulated kinase 3 (Homo sapiens) (UniProt O43781); assay: DYRK3 Kinase panel; conditions: Compound concentration 1.0 uM
[33] = target: Ribosomal protein S6 kinase alpha-5 (Homo sapiens) (UniProt O75582); assay: MSK1 Kinase panel; conditions: Compound concentration 1.0 uM
[34] = target: Angiopoietin-1 receptor (Homo sapiens) (UniProt Q02763); assay: Tie2 Kinase panel; conditions: Compound concentration 1.0 uM
[35] = target: Mitogen-activated protein kinase kinase kinase kinase 5 (Homo sapiens) (UniProt Q9Y4K4); assay: KHS1 Kinase panel; conditions: Compound concentration 1.0 uM
[36] = test system: RAF proto-oncogene serine/threonine-protein kinase (Homo sapiens), P04049 [Y340D,Y341D]; assay: RAF1(Y340D,Y3\n41D) Kinase panel; conditions: Compound concentration 1.0 uM
[37] = target: Receptor tyrosine-protein kinase erbB-2 (Homo sapiens) (UniProt P04626); assay: ErbB2 Kinase panel; conditions: Compound concentration 1.0 uM
[38] = target: Fibroblast growth factor receptor 3 (Homo sapiens) (UniProt P22607); assay: FGFR3 Kinase panel; conditions: Compound concentration 1.0 uM
[39] = target: Fibroblast growth factor receptor 4 (Homo sapiens) (UniProt P22455); assay: FGFR4 Kinase panel; conditions: Compound concentration 1.0 uM
[40] = IFNalpha human whole blood assay; assay type: tissue-based
[41] = target: Tyrosine-protein kinase Srms (Homo sapiens) (UniProt Q9H3Y6); assay: Srm Kinase panel; conditions: Compound concentration 1.0 uM
[42] = target: Mitogen-activated protein kinase kinase kinase 9 (Homo sapiens) (UniProt P80192); assay: MLK1 Kinase panel; conditions: Compound concentration 1.0 uM
[43] = target: Vascular endothelial growth factor receptor 3 (Homo sapiens) (UniProt P35916); assay: Flt4 Kinase panel; conditions: Compound concentration 1.0 uM
[44] = target: Serine/threonine-protein kinase 24 (Homo sapiens) (UniProt Q9Y6E0); assay: MST3 Kinase panel; conditions: Compound concentration 1.0 uM
[45] = target: Protein kinase C epsilon type (Homo sapiens) (UniProt Q02156); assay: PKC_epsilon Kinase panel; conditions: Compound concentration 1.0 uM
[46] = target: Aurora kinase A (Homo sapiens) (UniProt O14965); assay: Aurora_A Kinase panel; conditions: Compound concentration 1.0 uM
[47] = target: MAP kinase-activated protein kinase 3 (Homo sapiens) (UniProt Q16644); assay: MAPKAPK3 Kinase panel; conditions: Compound concentration 1.0 uM

Sequence of Dual specificity tyrosine-phosphorylation-regulated kinase 3 (Homo sapiens) (O43781 whole entry): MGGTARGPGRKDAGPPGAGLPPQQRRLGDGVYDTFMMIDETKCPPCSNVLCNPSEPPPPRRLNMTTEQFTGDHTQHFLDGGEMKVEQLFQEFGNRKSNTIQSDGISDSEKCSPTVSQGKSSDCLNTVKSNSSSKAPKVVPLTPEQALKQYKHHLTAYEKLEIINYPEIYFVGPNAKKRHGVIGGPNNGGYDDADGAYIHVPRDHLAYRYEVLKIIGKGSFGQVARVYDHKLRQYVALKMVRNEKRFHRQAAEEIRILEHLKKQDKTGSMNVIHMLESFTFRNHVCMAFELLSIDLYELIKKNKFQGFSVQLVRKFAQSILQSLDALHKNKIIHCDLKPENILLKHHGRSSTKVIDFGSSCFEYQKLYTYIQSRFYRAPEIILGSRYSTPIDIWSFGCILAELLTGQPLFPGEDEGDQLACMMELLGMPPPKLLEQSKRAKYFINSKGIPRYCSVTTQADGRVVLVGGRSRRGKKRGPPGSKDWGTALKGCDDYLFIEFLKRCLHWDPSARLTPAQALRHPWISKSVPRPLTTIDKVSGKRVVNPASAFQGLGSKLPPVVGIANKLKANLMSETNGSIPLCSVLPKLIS
Sequence of Serine/threonine-protein kinase DCLK2 (Homo sapiens) (Q8N568 whole entry): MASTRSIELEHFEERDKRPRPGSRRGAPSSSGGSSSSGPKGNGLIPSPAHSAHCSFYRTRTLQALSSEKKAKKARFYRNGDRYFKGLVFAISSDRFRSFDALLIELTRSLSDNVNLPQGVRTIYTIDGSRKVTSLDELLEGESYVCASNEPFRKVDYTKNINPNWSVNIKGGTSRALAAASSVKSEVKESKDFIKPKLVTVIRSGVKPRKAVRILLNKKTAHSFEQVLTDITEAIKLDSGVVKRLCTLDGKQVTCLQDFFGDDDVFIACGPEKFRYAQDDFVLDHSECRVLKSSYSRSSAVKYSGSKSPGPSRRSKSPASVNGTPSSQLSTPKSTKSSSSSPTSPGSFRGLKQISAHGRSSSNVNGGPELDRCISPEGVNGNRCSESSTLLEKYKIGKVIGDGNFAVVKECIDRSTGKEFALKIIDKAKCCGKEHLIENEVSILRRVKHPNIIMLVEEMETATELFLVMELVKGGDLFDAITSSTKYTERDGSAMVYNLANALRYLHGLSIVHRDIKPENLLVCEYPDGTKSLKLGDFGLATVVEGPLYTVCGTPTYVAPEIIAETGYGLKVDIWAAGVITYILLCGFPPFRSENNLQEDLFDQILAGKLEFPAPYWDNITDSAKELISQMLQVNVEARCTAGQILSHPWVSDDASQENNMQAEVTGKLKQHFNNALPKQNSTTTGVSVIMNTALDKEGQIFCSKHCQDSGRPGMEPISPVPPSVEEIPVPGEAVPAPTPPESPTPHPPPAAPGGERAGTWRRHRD
Sequence of Activin receptor type-1B (Homo sapiens) (P36896 whole entry): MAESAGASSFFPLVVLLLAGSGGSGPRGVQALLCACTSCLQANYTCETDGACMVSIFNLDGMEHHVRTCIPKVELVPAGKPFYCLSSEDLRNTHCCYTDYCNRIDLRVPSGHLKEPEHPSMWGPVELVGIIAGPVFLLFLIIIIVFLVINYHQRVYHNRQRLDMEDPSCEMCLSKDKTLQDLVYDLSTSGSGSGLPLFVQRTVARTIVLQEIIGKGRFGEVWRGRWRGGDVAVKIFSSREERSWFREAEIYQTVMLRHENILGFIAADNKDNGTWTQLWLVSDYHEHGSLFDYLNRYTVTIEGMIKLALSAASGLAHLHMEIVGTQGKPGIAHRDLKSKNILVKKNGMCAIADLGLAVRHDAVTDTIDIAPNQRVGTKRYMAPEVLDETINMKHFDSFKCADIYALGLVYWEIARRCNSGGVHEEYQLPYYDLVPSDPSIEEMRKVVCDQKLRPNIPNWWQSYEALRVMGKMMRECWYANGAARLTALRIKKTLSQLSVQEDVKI
Sequence of Ribosomal protein S6 kinase alpha-1 (Homo sapiens) (Q15418 whole entry): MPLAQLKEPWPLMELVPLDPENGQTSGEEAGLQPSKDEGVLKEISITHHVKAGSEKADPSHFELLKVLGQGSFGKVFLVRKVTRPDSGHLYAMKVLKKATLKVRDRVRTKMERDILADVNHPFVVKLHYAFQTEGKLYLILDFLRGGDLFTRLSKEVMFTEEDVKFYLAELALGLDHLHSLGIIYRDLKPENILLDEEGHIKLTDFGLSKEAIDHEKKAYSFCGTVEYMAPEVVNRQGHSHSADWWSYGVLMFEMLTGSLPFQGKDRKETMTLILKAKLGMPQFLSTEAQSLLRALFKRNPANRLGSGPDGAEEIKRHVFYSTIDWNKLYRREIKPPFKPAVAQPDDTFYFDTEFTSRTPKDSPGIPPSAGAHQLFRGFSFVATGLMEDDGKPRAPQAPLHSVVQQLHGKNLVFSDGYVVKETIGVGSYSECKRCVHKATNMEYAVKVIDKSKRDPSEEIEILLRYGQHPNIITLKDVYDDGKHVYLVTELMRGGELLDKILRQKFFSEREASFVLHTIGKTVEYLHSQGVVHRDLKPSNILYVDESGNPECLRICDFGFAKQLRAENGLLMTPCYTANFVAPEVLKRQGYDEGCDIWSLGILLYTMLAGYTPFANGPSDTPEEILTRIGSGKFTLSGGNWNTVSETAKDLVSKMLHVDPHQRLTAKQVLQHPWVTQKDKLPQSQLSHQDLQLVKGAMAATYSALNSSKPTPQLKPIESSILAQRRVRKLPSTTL
Sequence of Dual specificity protein kinase TTK (Homo sapiens) (P33981 whole entry): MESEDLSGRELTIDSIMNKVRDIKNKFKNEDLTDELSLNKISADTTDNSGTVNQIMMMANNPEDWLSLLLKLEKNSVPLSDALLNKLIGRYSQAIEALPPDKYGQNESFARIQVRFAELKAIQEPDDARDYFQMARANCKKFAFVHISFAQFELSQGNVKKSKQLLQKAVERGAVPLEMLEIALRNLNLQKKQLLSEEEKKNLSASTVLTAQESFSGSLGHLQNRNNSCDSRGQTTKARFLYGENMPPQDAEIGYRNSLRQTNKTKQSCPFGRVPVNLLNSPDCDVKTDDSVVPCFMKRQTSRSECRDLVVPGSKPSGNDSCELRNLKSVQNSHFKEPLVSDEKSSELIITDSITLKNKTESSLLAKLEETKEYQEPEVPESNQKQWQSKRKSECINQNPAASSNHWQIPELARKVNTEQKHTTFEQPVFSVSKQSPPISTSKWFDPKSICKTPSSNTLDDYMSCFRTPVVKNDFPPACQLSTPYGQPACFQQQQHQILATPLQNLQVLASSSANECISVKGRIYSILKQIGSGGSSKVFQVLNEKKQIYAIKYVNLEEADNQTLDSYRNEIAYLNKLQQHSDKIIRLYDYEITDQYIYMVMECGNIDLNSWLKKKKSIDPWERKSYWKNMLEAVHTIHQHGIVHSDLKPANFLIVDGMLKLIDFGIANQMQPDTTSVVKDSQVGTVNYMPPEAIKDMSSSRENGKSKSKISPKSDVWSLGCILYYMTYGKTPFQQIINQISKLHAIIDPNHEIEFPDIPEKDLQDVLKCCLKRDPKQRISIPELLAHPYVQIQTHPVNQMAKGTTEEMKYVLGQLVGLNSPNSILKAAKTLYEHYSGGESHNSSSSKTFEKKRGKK
Sequence of Fibroblast growth factor receptor 3 (Homo sapiens) (P22607 23-806 limits assumed): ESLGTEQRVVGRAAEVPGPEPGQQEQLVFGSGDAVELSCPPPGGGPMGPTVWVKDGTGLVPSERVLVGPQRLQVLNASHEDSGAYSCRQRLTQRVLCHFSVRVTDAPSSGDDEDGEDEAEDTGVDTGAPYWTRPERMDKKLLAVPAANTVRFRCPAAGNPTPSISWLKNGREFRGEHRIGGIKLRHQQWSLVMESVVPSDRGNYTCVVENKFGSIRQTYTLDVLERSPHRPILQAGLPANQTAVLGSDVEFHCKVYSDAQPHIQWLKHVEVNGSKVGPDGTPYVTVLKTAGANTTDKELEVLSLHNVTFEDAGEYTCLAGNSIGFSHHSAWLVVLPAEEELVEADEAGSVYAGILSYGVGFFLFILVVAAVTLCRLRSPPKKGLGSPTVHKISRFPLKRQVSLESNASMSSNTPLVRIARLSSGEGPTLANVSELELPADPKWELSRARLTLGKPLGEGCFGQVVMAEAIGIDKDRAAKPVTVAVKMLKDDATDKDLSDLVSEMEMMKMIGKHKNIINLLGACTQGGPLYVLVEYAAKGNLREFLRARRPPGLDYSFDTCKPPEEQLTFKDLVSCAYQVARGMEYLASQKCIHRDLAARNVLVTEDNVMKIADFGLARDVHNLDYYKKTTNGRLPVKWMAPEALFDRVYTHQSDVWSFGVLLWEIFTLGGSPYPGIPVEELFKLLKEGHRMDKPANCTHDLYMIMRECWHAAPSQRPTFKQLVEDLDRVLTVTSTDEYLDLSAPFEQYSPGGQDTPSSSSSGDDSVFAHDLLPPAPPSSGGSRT
Sequence of Aurora kinase A (Homo sapiens) (O14965 whole entry): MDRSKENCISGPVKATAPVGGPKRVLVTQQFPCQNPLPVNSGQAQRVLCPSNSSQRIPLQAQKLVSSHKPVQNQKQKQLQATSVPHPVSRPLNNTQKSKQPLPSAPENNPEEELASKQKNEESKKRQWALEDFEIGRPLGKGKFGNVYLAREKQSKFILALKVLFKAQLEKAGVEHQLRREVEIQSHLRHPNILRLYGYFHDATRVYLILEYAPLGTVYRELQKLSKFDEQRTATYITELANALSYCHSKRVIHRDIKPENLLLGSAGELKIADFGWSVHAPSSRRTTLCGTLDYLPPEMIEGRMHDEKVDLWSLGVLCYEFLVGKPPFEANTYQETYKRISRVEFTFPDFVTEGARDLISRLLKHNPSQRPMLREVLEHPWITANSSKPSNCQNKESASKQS
Sequence of Serine/threonine-protein kinase 16 (Homo sapiens) (O75716 whole entry): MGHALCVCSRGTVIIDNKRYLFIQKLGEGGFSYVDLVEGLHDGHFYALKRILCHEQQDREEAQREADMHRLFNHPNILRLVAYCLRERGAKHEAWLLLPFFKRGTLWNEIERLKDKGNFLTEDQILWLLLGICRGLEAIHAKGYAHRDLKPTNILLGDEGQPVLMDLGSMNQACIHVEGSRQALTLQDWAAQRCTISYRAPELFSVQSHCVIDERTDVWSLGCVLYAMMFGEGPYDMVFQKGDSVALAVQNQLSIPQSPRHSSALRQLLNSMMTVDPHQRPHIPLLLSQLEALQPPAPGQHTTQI

Work on `CC(C)(O)[C@H](F)CN1Cc2cc(NC(=O)c3cnn4cccnc34)c(N3CCOCC3)cc2C1=O` yielded an inhibition [1] of -0%, an inhibition [2] of 5.5% and an inhibition [3] of -5.14%. It also gave an inhibition [4] of 5.5%, an inhibition [5] of 2.5% and an inhibition [6] of 5.5%. It also gave an inhibition [7] of 13%, an inhibition [8] of 15% and an inhibition [9] of 11.5%. For the same compound, the EC50 [10] was 11 µM (not active), the inhibition [11] was -1.84% and the inhibition [12] was -6%. It also gave an inhibition [13] of 0.5%, an inhibition [14] of 13% and an inhibition [15] of 1.5%. The inhibition [16] was 7.5%, the inhibition [17] was 84.1% and the inhibition [18] was 22%. It also gave an inhibition [19] of -2.5%, an inhibition [20] of 1% and an inhibition [21] of 4%. It also gave an inhibition [22] of 86%, an inhibition [23] of 13% and an inhibition [24] of 47.8%. The inhibition [25] was 11%, the inhibition [26] was 11% and the inhibition [27] was -0%. It also gave an inhibition [28] of -1%, an inhibition [29] of 10.5% and an inhibition [30] of 20%. The inhibition [31] was -5.5%, the inhibition [32] was 2% and the inhibition [33] was -2%. It also gave an inhibition [34] of 6.5%, an inhibition [35] of 36.5% and an inhibition [36] of -1.5%. For the same compound, the inhibition [37] was 1.5%, the inhibition [38] was 1.5% and the inhibition [39] was -2%. The IC50 [40] was 0.29 µM (active), the inhibition [41] was 16% and the inhibition [42] was 14%. It also gave an inhibition [43] of 13%, an inhibition [44] of 5.5% and an inhibition [45] of 13%. The inhibition [46] was 20.5% and the inhibition [47] was 6%.
